In ChEMBL document CHEMBL4190260, “Antibiofilm potential of 16-oxo-cleroda-3, 13(14) E-diene-15 oic acid and its five new γ-amino γ-lactone derivatives against methicillin resistant Staphylococcus aureus and Streptococcus mutans” (2017):
Values after ≈ are worked out from the molar mass of the structure shown. Values belong to the compound of their own block, whether it stands above or below them. Active and inactive are the calls of the source. The rule behind the calls is not given here.

How the values were obtained:
Proteus mirabilis [1] = test: Antibiofilm activity against Proteus mirabilis ATCC 12453 measured after overnight incubation by crystal violet-staining based assay; type: functional
Klebsiella pneumoniae [2] = test: Antibiofilm activity against Klebsiella pneumoniae ATCC 13882 measured after overnight incubation by crystal violet-staining based assay; type: functional
Streptococcus mutans [3] = test: Antibiofilm activity against Streptococcus mutans ATCC 25175 measured after overnight incubation by crystal violet-staining based assay; type: functional
Proteus mirabilis [4] = test: Antibacterial activity against Proteus mirabilis ATCC 12453 measured after overnight incubation by two-fold serial dilution method; type: functional
Staphylococcus aureus [5] = test: Antibacterial activity against methicillin-resistant Staphylococcus aureus ATCC 43300 measured after overnight incubation by two-fold serial dilution method; type: functional
Klebsiella pneumoniae [6] = test: Antibacterial activity against Klebsiella pneumoniae ATCC 13882 measured after overnight incubation by two-fold serial dilution method; type: functional
Staphylococcus aureus [7] = test: Antibiofilm activity against methicillin-resistant Staphylococcus aureus ATCC 43300 measured after overnight incubation by crystal violet-staining based assay; type: functional
Streptococcus mutans [8] = test: Antibacterial activity against Streptococcus mutans ATCC 25175 measured after overnight incubation by two-fold serial dilution method; type: functional
Staphylococcus aureus [9] = test: Antibacterial activity against methicillin-resistant Staphylococcus aureus ATCC 43300 assessed as reduction in acid production at 0.5 times MIC and MIC measured up to 24 hrs; type: functional, organism-based
Staphylococcus aureus [10] = test: Antibiofilm activity against methicillin-resistant Staphylococcus aureus ATCC 43300 assessed as down-regulation of IcaA gene expression by semi-quantitative PCR analysis; type: functional, organism-based
Staphylococcus aureus [11] = test: Potency index, ratio of 6 amino penicillinic acid MIC to test compound MIC for methicillin-resistant Staphylococcus aureus ATCC 43300; type: functional
Streptococcus mutans [12] = test: Potency index, ratio of 6 amino penicillinic acid MIC to test compound MIC for Streptococcus mutans ATCC 25175; type: functional
Streptococcus mutans [13] = test: Antibiofilm activity against Streptococcus mutans ATCC 25175 assessed as down-regulation of gtfB gene expression by semi-quantitative PCR analysis; type: functional, organism-based
Staphylococcus aureus [14] = test: Bactericidal activity against methicillin-resistant Staphylococcus aureus ATCC 43300 measured after overnight incubation; type: functional
Staphylococcus aureus [15] = test: Potency index, ratio of cefixime MIC to test compound MIC for methicillin-resistant Staphylococcus aureus ATCC 43300; type: functional
Staphylococcus aureus [16] = test: Antibacterial activity against methicillin-resistant Staphylococcus aureus ATCC 43300 assessed as log reduction in bacterial count at 5 ug/ml measured after 24 hrs; type: functional
Streptococcus mutans [17] = test: Potency index, ratio of cefixime MIC to test compound MIC for Streptococcus mutans ATCC 25175; type: functional
Staphylococcus aureus [18] = test: Antibacterial activity against methicillin-resistant Staphylococcus aureus ATCC 43300 assessed as inhibition of colony formation at 5 to 20 ug/ml measured after 24 hrs; type: functional, organism-based
Streptococcus mutans [19] = test: Bactericidal activity against Streptococcus mutans ATCC 25175 measured after overnight incubation; type: functional
Staphylococcus aureus [20] = test: Antibacterial activity against methicillin-resistant Staphylococcus aureus ATCC 43300 assessed as delay in bacterial growth at 4 times MIC after 10 mins; type: functional, organism-based
Staphylococcus aureus [21] = test: Bacteriostatic activity against methicillin-resistant Staphylococcus aureus ATCC 43300 assessed as log reduction in colony forming units at 12.5 to 15 ug/ml after 24 hrs; type: functional, organism-based
Staphylococcus aureus [22] = test: Antibiofilm activity against methicillin-resistant Staphylococcus aureus ATCC 43300 assessed as formation of oviod cells at MBIC concentration by uranyl acetate-staining based electron microscopy; type: functional, organism-based
Streptococcus mutans [23] = test: Antibiofilm activity against Streptococcus mutans ATCC 25175 assessed as down-regulation of luxS gene expression by semi-quantitative PCR analysis; type: functional, organism-based
Streptococcus mutans [24] = test: Antibiofilm activity against Streptococcus mutans ATCC 25175 assessed as disruption of biofilm at 10 to 12 ug/ml by fluorescence microscopy; type: functional, organism-based
Streptococcus mutans [25] = test: Antibiofilm activity against Streptococcus mutans ATCC 25175 assessed as down-regulation of gtfC gene expression by semi-quantitative PCR analysis; type: functional, organism-based
Staphylococcus aureus [26] = test: Antibiofilm activity against methicillin-resistant Staphylococcus aureus ATCC 43300 assessed as formation of broken chains at MBIC concentration by uranyl acetate-staining based electron microscopy; type: functional, organism-based
Streptococcus mutans [27] = test: Antibacterial activity against Streptococcus mutans ATCC 25175 measured assessed as reduction in bacterial viability at 5 to 15 ug/ml after 24 hrs by MTT assay; type: functional
Staphylococcus aureus [28] = test: Antibacterial activity against methicillin-resistant Staphylococcus aureus ATCC 43300 assessed as time delay in bacterial growth at 2 times MIC after 10 mins; type: functional
Streptococcus mutans [29] = test: Bacteriostatic activity against Streptococcus mutans ATCC 25175 assessed as log reduction in colony forming units at 7.5 to 10 ug/ml after 24 hrs; type: functional, organism-based
Staphylococcus aureus [30] = test: Potency index, ratio of gentamycin sulphate MIC to test compound MIC for methicillin-resistant Staphylococcus aureus ATCC 43300; type: functional
Staphylococcus aureus [31] = test: Antibiofilm activity against methicillin-resistant Staphylococcus aureus ATCC 43300 assessed as disruption of biofilm at 10 to 12 ug/ml by fluorescence microscopy; type: functional, organism-based
Streptococcus mutans [32] = test: Antibacterial activity against Streptococcus mutans ATCC 25175 measured assessed as inhibition of colony formation at 5 to 15 ug/ml after 24 hrs; type: functional, organism-based
Streptococcus mutans [33] = test: Antibacterial activity against Streptococcus mutans ATCC 25175 assessed as time delay in bacterial growth at MIC, 2 times MIC and 4 times MIC; type: functional
Streptococcus mutans [34] = test: Antibacterial activity against Streptococcus mutans ATCC 25175 assessed as reduction in acid production at 0.5 times MIC and MIC measured up to 24 hrs; type: functional, organism-based
Staphylococcus aureus [35] = test: Antibacterial activity against methicillin-resistant Staphylococcus aureus ATCC 43300 assessed as time delay in bacterial growth at MIC after 10 mins; type: functional
Staphylococcus aureus [36] = test: Antibacterial activity against methicillin-resistant Staphylococcus aureus ATCC 43300 assessed as reduction in bacterial viability at 5 to 20 ug/ml measured after 24 hrs by MTT assay; type: functional
Streptococcus mutans [37] = test: Antibacterial activity against Streptococcus mutans ATCC 25175 assessed as log reduction in bacterial count at 10 ug/ml measured after 24 hrs relative to control; type: functional
Streptococcus mutans [38] = test: Antibiofilm activity against Streptococcus mutans ATCC 25175 assessed as formation of oviod cells at MBIC concentration by uranyl acetate-staining based electron microscopy; type: functional, organism-based
Streptococcus mutans [39] = test: Bacteriostatic activity against Streptococcus mutans ATCC 25175 assessed as log reduction in colony forming units at 12 to 16 ug/ml after 24 hrs; type: functional, organism-based
Staphylococcus aureus [40] = test: Bacteriostatic activity against methicillin-resistant Staphylococcus aureus ATCC 43300 assessed as log reduction in colony forming units at 15 to 20 ug/ml after 24 hrs; type: functional, organism-based
Streptococcus mutans [41] = test: Antibacterial activity against Streptococcus mutans ATCC 25175 measured assessed as reduction in bacterial viability at 5 to 20 ug/ml after 24 hrs by MTT assay; type: functional
Staphylococcus aureus [42] = test: Antibacterial activity against methicillin-resistant Staphylococcus aureus ATCC 43300 assessed as log reduction in bacterial count at 8 ug/ml measured after 24 hrs; type: functional
Staphylococcus aureus [43] = test: Antibacterial activity against methicillin-resistant Staphylococcus aureus ATCC 43300 assessed as delay in bacterial growth at 2 times MIC after 10 mins; type: functional, organism-based
Staphylococcus aureus [44] = test: Antibacterial activity against methicillin-resistant Staphylococcus aureus ATCC 43300 assessed as reduction in bacterial viability at 4 to 16 ug/ml measured after 24 hrs by MTT assay; type: functional
Staphylococcus aureus [45] = test: Antibacterial activity against methicillin-resistant Staphylococcus aureus ATCC 43300 assessed as delay in bacterial growth at MIC after 10 mins; type: functional, organism-based
Streptococcus mutans [46] = test: Antibacterial activity against Streptococcus mutans ATCC 25175 measured assessed as inhibition of colony formation at 5 to 20 ug/ml after 24 hrs; type: functional, organism-based
Streptococcus mutans [47] = test: Antibiofilm activity against Streptococcus mutans ATCC 25175 assessed as formation of broken chains at MBIC concentration by uranyl acetate-staining based electron microscopy; type: functional, organism-based
Staphylococcus aureus [48] = test: Antibacterial activity against methicillin-resistant Staphylococcus aureus ATCC 43300 assessed as inhibition of colony formation at 4 to 16 ug/ml measured after 24 hrs; type: functional, organism-based

Structure (SMILES): C=CC1=C(C(=O)O)N2C(=O)[C@@H](NC(=O)/C(=N\OCC(=O)O)c3csc(N)n3)[C@H]2SC1 [CEFIXIME]
Activity (Proteus mirabilis [1]): 72.6%
MBIC (Proteus mirabilis [1]): 40 µg/mL
Activity (Klebsiella pneumoniae [2]): 94.78%
MBIC (Klebsiella pneumoniae [2]): 40 µg/mL
Activity (Streptococcus mutans [3]): 96.06%
MBIC (Streptococcus mutans [3]): 40 µg/mL
MIC (Proteus mirabilis [4]): 40 µg/mL (≈ 88.2 µM)
MIC (Staphylococcus aureus [5]): 82 µg/mL (≈ 181 µM)
MIC (Klebsiella pneumoniae [6]): 40 µg/mL (≈ 88.2 µM)
Activity (Staphylococcus aureus [7]): 73.5%
MBIC (Staphylococcus aureus [7]): 82 µg/mL
MIC (Streptococcus mutans [8]): 40 µg/mL (≈ 88.2 µM)

Structure (SMILES): CC1=CCC[C@@H]2[C@@](C)(CCC3=CC(=O)OC3Nc3ccccc3)[C@H](C)CC[C@@]12C (mixture of isomers)
Activity (Staphylococcus aureus [9]): Active
Activity (Streptococcus mutans [3]): 95.88%
MBIC (Streptococcus mutans [3]): 15 µg/mL
Activity (Staphylococcus aureus [10]): inactive
Ratio (Staphylococcus aureus [11]): 5
Ratio (Streptococcus mutans [12]): 5
Activity (Streptococcus mutans [13]): Active
MBC (Staphylococcus aureus [14]): inactive
Ratio (Staphylococcus aureus [15]): 5
Activity (Staphylococcus aureus [16]): 9.5 log10CFU/ml
Ratio (Streptococcus mutans [17]): 5
Activity (Staphylococcus aureus [18]): Active
MBC (Streptococcus mutans [19]): inactive
Activity (Staphylococcus aureus [20]): Active
Activity (Staphylococcus aureus [21]): Active
Activity (Staphylococcus aureus [22]): Active
Activity (Streptococcus mutans [23]): Active
Activity (Streptococcus mutans [24]): Active
Activity (Streptococcus mutans [25]): Active
Activity (Staphylococcus aureus [26]): Active
MIC (Staphylococcus aureus [5]): 10 µg/mL
Activity (Streptococcus mutans [27]): <=90%
Time (Staphylococcus aureus [28]): 1 to 2 h
Activity (Streptococcus mutans [29]): Active
Ratio (Staphylococcus aureus [30]): 5
MIC (Klebsiella pneumoniae [6]): inactive
Activity (Staphylococcus aureus [31]): Active
Activity (Streptococcus mutans [32]): Active
Time (Streptococcus mutans [33]): >=8 hr
Activity (Streptococcus mutans [34]): Active
Time (Staphylococcus aureus [35]): 1 to 2 h
Activity (Staphylococcus aureus [7]): 96.9%
MBIC (Staphylococcus aureus [7]): 10 µg/mL
MIC (Streptococcus mutans [8]): 15 µg/mL
Activity (Staphylococcus aureus [36]): <=90%
Activity (Streptococcus mutans [37]): 7.5 - 8 log10CFU/ml

MIC (Streptococcus mutans [8]): inactive
Structure (SMILES): CC1=CCC[C@@H]2[C@@](C)(CCC3=CC(=O)OC3Nc3ccc(F)cc3)[C@H](C)CC[C@@]12C (mixture of isomers)

Structure (SMILES): CC1(C)S[C@@H]2[C@H](N)C(=O)N2[C@H]1C(=O)O
Activity (Proteus mirabilis [1]): 89.2%
MBIC (Proteus mirabilis [1]): 35 µg/mL
Activity (Klebsiella pneumoniae [2]): 68.9%
MBIC (Klebsiella pneumoniae [2]): 35 µg/mL
Activity (Streptococcus mutans [3]): 29.31%
MBIC (Streptococcus mutans [3]): 7 µg/mL
MIC (Proteus mirabilis [4]): 35 µg/mL (≈ 162 µM)
MIC (Staphylococcus aureus [5]): 135 µg/mL (≈ 624 µM)
MIC (Klebsiella pneumoniae [6]): 35 µg/mL (≈ 162 µM)
Activity (Staphylococcus aureus [7]): 60.46%
MBIC (Staphylococcus aureus [7]): 150 µg/mL
MIC (Streptococcus mutans [8]): 70 µg/mL (≈ 324 µM)

Structure (SMILES): CC1=CCC[C@@H]2[C@@](C)(CC/C(C=O)=C\C(=O)O)[C@H](C)CC[C@@]12C
Activity (Staphylococcus aureus [9]): Active
Activity (Streptococcus mutans [38]): Active
Activity (Streptococcus mutans [3]): 92.06%
MBIC (Streptococcus mutans [3]): 20 µg/mL
Activity (Staphylococcus aureus [10]): Active
Ratio (Staphylococcus aureus [11]): 5
Ratio (Streptococcus mutans [12]): 5
Activity (Streptococcus mutans [39]): Active
Activity (Streptococcus mutans [13]): Active
Activity (Staphylococcus aureus [40]): Active
MBC (Staphylococcus aureus [14]): 95 µg/mL (≈ 298 µM)
Ratio (Staphylococcus aureus [15]): 5
Ratio (Streptococcus mutans [17]): 5
MBC (Streptococcus mutans [19]): 185 µg/mL (≈ 581 µM)
Activity (Staphylococcus aureus [20]): Active
Activity (Streptococcus mutans [41]): <=90%
Activity (Staphylococcus aureus [42]): 9 log10CFU/ml
Activity (Staphylococcus aureus [22]): Active
Activity (Streptococcus mutans [23]): Active
Activity (Streptococcus mutans [24]): Active
Activity (Streptococcus mutans [25]): Active
Activity (Staphylococcus aureus [43]): Active
Activity (Staphylococcus aureus [26]): Active
MIC (Staphylococcus aureus [5]): 16 µg/mL (≈ 50.2 µM)
Activity (Staphylococcus aureus [44]): <=90%
Ratio (Staphylococcus aureus [30]): 5
Activity (Staphylococcus aureus [45]): Active
MIC (Klebsiella pneumoniae [6]): inactive
Activity (Streptococcus mutans [46]): Active
Activity (Staphylococcus aureus [31]): Active
Activity (Streptococcus mutans [47]): Active
Time (Streptococcus mutans [33]): >=8 hr
Activity (Streptococcus mutans [34]): Active
Activity (Staphylococcus aureus [48]): Active
Activity (Staphylococcus aureus [7]): 94.26%
MBIC (Staphylococcus aureus [7]): 16 µg/mL
MIC (Streptococcus mutans [8]): 20 µg/mL (≈ 62.8 µM)
Activity (Streptococcus mutans [37]): 7.5 - 8 log10CFU/ml
